# According to patent US11072609B2, “Method for preparing halogenated imidazopyridine derivatives” (Bayer Aktiengesellschaft, priority 2017, dated 2021):
# Columns and labels:
# Myzus persicae [1] = assay: Myzus persicae - spray test; type: in vivo; settings: Chinese cabbage leaf discs, after 5 days
# Procedure: Myzus persicae—Spray Test [table] To produce a suitable active ingredient formulation, 1 part by weight of active ingredient is dissolved with the specified parts by weight of solvent and made up to the desired concentration with water containing an emulsifier concentration of 1000 ppm. To produce further test concentrations, the formulation is diluted with emulsifier-containing water. Discs of Chinese cabbage leaves (Brassica pekinensis) infested by all stages of the green peach aphid (Myzus persicae) are sprayed with an active ingredient formulation of the desired concentration. After 5 days, the efficacy in % is determined. 100% means that all the aphids have been killed; 0% means that no aphids have been killed.
# Myzus persicae [2] = assay: Myzus persicae - oral test; type: in vivo; settings: application rate 4 ppm; after 5 days; 100% = all aphids killed
# Procedure: Myzus persicae—Oral Test Solvent: 100 parts by weight of acetone To produce a suitable active ingredient formulation, 1 part by weight of active ingredient is dissolved with the stated parts by weight of solvent and made up to the desired concentration with water. 50 μl of the active ingredient formulation are transferred into microtitre plates and made up to a final volume of 200 μl with 150 μl of IPL41 insect medium (33%+15% sugar). Subsequently, the plates are sealed with parafilm, which a mixed population of green peach aphids (Myzus persicae) within a second microtitre plate is able to puncture and imbibe the solution. After 5 days, the efficacy in % is determined. 100% means that all the aphids have been killed; 0% means that no aphids have been killed.
# Phaedon cochleariae = Phaedon cochleariae - spray test; type: in vivo; settings: application rate 100 g/ha; Chinese cabbage leaf discs, larvae; after 7 days
# Procedure: Phaedon cochleariae—Spray Test
# To produce a suitable active ingredient formulation, 1 part by weight of active ingredient is dissolved with the specified parts by weight of solvent and made up to the desired concentration with water containing an emulsifier concentration of 1000 ppm. To produce further test concentrations, the formulation is diluted with emulsifier-containing water.
# Discs of Chinese cabbage leaves (Brassica pekinensis) are sprayed with an active ingredient formularation of the desired concentration and, after drying, populated with larvae of the mustard beetle (Phaedon cochleariae).
# After 7 days, the efficacy in % is determined. 100% means that all the beetle larvae have been killed; 0% means that no beetle larvae have been killed.
# Spodoptera frugiperda = assay: Spodoptera frugiverda - spray test; type: in vivo; settings: application rate 100 g/ha; maize leaf discs, caterpillars; after 7 days
# Procedure: Spodoptera frugiverda—Spray Test [table] To produce a suitable active ingredient formulation, 1 part by weight of active ingredient is dissolved with the specified parts by weight of solvent and made up to the desired concentration with water containing an emulsifier concentration of 1000 ppm. To produce further test concentrations, the formulation is diluted with emulsifier-containing water. Leaf discs of maize (Zea mays) are sprayed with an active ingredient formulation of the desired concentration and, after drying, populated with caterpillars of the armyworm (Spodoptera frugiperda). After 7 days, the efficacy in % is determined. 100% means that all the caterpillars have been killed; 0% means that no caterpillar has been killed.
# [3] = log P by HPLC on reversed-phase column (C 18), EEC Directive 79/831 Annex V.A8; type: physicochemical; settings: reversed-phase C18 HPLC column; HPLC-MS, reversed-phase C 18, 55° C.; acidic or neutral range not stated
# Procedure: The log P values are measured according to EEC Directive 79/831 Annex V.A8 by HPLC (high-performance liquid chromatography) on a reversed-phase column (C 18). Temperature: 55° C. The LC-MS determination in the acidic range is carried out at pH 2.7 using the mobile phases 0.1% aqueous formic acid and acetonitrile (contains 0.1% formic acid); linear gradient from 10% acetonitrile to 95% acetonitrile. The LC-MS determination in the neutral range is carried out at pH 7.8 using the mobile phases 0.001 molar aqueous ammonium bicarbonate solution and acetonitrile; linear gradient from 10% acetonitrile to 95% acetonitrile. Calibration is carried out using unbranched alkan-2-ones (having 3 to 16 carbon atoms) with known log P values (log P values determined on the basis of the retention times by linear interpolation between two successive alkanones).
SMILES,chromatographic logP [3],efficacy (Myzus persicae [2]) [%],also measured
CCS(=O)(=O)c1ccc(-n2cncn2)nc1-c1nc2cc(C(F)(F)F)nc(C)c2n1C [compound 2],–,100,efficacy (Myzus persicae [1]; application rate 20 g/ha): 90%; efficacy (Phaedon cochleariae): 83%
CCS(=O)(=O)c1ccc(-n2cncn2)nc1-c1nc2cc(C(F)(F)F)nc(Cl)c2n1C [compound 3],–,100,efficacy (Spodoptera frugiperda): 100%; efficacy (Myzus persicae [1]; application rate 20 g/ha): 100%; efficacy (Myzus persicae [1]; application rate 100 g/ha): 100%
"CCSc1ccc(Cl)nc1-c1nc2cc(C(F)(F)F)nc(C)c2n1C [Example 3, 2-[6-chloro-3-(ethylsulfanyl)pyridin-2-yl]-3,4-dimethyl-6-(trifluoromethyl)-3H-imidazo[4,5-c]pyridine]",3.23,–,–
"CCSc1ccc(Br)nc1-c1nc2cc(C(F)(F)F)nc(C#N)c2n1C [Example 6, 2-[6-bromo-3-(ethylsulfanyl)pyridin-2-yl]-3-methyl-6-(trifluoromethyl)-3H-imidazo[4,5-c]pyridine-4-carbonitrile]",3.87,–,–
"CCS(=O)(=O)c1ccc(-n2cncn2)nc1-c1nc2cc(C(F)(F)F)nc(C#N)c2n1C [Compound No. 1, 2-[3-(ethylsulfonyl)-6-(1H-1,2,4-triazol-1-yl)pyridin-2-yl]-3-methyl-6-(trifluoromethyl)-3H-imidazo[4,5-c]pyridine-4-carbonitrile]",–,100,efficacy (Phaedon cochleariae): 83%

# Further lines, with some results ahead:
chromatographic logP [3],SMILES,efficacy (Myzus persicae [2]) [%],also measured
3.36,"CCSc1ccc(Br)nc1-c1nc2cc(C(F)(F)F)nc(C)c2n1C [Example 4, 2-[6-bromo-3-(ethylsulfanyl)pyridin-2-yl]-3,4-dimethyl-6-(trifluoromethyl)-3H-imidazo[4,5-c]pyridine]",–,–
4.18,"CCSc1ccc(Br)nc1-c1nc2cc(C(F)(F)F)nc(Cl)c2n1C [Example 7, 2-[6-bromo-3-(ethylsulfanyl)pyridin-2-yl]-4-chloro-3-methyl-6-(trifluoromethyl)-3H-imidazo[4,5-c]pyridine]",–,–
3.84,"CCSc1ccc(Cl)nc1-c1nc2cc(C(F)(F)F)nc(C#N)c2n1C [Example 5, 2-[6-chloro-3-(ethylsulfanyl)pyridin-2-yl]-3-methyl-6-(trifluoromethyl)-3H-imidazo[4,5-c]pyridine-4-carbonitrile]",–,–
4.34,"CCSc1ccc(Br)nc1-c1nc2cc(C(F)(F)F)nc(I)c2n1C [Example 2, 2-[6-bromo-3-(ethylsulfanyl)pyridin-2-yl]-4-iodo-3-methyl-6-(trifluoromethyl)-3H-imidazo[4,5-c]pyridine]",–,–
4.17,"CCSc1ccc(Cl)nc1-c1nc2cc(C(F)(F)F)nc(I)c2n1C [Example 1, 2-[6-chloro-3-(ethylsulfanyl)pyridin-2-yl]-4-iodo-3-methyl-6-(trifluoromethyl)-3H-imidazo[4,5-c]pyridine]",–,–
